Measurements from ChEMBL document CHEMBL4825708 (J Med Chem, 2021).
≈ marks a conversion by molar mass, not a printed value.

Legend:
in vitro [1] = conditions: human, hepatocytes
[2] = Apparent permeability in MDCK cells across apical to basolateral side at 10 uM incubated for 3 hrs by LC-MS/MS analysis; conditions: dog
Estrogen receptor [3] = target: T1, Estrogen receptor (Homo sapiens, UniProt P03372); conditions: mcf7
T1 sequence (P03372 whole entry): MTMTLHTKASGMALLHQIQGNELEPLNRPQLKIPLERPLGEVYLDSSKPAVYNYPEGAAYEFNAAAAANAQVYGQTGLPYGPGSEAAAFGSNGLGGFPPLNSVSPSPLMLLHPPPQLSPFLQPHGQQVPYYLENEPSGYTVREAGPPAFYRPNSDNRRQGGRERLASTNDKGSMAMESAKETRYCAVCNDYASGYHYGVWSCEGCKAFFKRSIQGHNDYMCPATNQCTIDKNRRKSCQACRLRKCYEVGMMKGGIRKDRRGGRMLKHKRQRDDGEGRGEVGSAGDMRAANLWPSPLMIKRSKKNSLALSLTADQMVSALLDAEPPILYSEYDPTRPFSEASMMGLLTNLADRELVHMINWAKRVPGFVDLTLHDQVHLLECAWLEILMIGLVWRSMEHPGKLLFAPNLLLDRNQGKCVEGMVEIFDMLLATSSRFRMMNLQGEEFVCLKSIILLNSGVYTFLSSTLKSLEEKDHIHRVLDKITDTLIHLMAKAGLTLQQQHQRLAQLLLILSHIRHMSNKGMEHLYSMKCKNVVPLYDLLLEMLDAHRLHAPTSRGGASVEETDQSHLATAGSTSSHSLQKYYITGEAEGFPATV
Description: Induction of estrogen receptor degradation in human MCF7 cells incubated for 4 hrs by Alexafluor -488 conjugate anti-mouse IgG staining based fluorescence method

[4] = target: Voltage-gated inwardly rectifying potassium channel KCNH2 (Homo sapiens, UniProt Q12809); assay: Inhibition of human ERG expressed in HEK293 cells incubated for 5 mins by patch clamp assay
Chain of Voltage-gated inwardly rectifying potassium channel KCNH2 (Q12809 whole entry): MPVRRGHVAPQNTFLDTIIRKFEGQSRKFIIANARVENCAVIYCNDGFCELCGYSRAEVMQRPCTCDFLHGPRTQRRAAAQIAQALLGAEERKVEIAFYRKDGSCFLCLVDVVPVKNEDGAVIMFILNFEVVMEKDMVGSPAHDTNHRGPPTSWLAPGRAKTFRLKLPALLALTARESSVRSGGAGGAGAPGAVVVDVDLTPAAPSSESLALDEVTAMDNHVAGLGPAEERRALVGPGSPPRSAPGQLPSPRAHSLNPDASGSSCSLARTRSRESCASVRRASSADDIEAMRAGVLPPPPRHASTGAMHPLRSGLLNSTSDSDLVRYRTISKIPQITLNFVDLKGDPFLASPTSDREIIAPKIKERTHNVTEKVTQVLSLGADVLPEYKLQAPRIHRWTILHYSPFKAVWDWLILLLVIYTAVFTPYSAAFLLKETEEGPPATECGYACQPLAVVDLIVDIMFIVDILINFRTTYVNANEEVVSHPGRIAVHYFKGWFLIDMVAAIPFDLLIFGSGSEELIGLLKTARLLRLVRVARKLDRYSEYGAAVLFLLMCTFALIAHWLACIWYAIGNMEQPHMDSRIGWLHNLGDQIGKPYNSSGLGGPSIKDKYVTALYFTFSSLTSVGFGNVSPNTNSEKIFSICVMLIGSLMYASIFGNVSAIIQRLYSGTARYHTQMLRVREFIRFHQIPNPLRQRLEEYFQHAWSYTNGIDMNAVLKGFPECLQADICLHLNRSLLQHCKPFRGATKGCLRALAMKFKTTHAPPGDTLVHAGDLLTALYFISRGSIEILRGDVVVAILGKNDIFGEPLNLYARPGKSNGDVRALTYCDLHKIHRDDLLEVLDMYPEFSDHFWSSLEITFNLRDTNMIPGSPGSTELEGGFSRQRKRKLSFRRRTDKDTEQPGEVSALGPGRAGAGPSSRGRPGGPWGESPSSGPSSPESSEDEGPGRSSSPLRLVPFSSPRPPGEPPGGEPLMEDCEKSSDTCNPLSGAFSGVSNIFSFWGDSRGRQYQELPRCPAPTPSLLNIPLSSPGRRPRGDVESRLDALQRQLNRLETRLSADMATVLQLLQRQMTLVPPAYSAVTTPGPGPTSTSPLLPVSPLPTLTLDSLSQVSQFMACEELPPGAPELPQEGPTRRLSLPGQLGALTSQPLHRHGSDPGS

in vitro [5] = conditions: rat, microsomes
in vivo [6] = conditions: Sprague-Dawley, rat, po, 1 mg/kg
in vitro [7] = conditions: mouse, mouse hepatocytes
CYP3A4 [8] = target: T2, CYP3A4 (Homo sapiens, UniProt P08684); assay: Time dependent inhibition of CYP3A4 in human liver microsomes using testosterone as substrate incubated for 10 mins by LC-MS/MS analysis
T2 sequence (P08684 whole entry): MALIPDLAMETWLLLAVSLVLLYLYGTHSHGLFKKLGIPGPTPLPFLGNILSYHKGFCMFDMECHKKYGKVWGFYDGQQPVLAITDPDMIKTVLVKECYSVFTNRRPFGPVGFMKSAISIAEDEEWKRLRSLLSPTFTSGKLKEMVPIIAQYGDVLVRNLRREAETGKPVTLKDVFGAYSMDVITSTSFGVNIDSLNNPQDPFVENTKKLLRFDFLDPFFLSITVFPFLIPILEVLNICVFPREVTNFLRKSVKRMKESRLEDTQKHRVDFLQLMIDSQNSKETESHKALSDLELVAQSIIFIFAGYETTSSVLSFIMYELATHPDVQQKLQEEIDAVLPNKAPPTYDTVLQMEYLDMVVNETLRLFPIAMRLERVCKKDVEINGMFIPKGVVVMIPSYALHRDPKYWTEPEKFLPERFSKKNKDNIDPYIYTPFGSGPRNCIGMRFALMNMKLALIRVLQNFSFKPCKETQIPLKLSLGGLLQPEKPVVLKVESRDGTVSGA

MCF7 = assay: cells; conditions: Homo sapiens, MCF7, 72 h
Description: Antiproliferative activity against human MCF-7 cells incubated for 72 hrs by Cell-titer Glo assay

in vitro [9] = conditions: human, microsomes
in vivo [10] = conditions: Sprague-Dawley, rat, iv, 1 mg/kg
in vitro [11] = conditions: dog, dog hepatocytes
[12] = Distribution coefficient, logD of the compound at pH 7.4; conditions: octanol/water
[13] = Half life in Sprague-Dawley rat at 1 mg/kg, iv or po measured after 0.033 to 24 hrs by LC/MS/MS analysis; conditions: in vivo
in vivo [14] = conditions: cynomolgus monkey, po, 100 mg/kg
[15] = Half life in Beagle dog at 1 mg/kg, iv or po measured after 0.033 to 24 hrs by LC/MS/MS analysis; conditions: in vivo
[16] = Volume of distribution at steady state in Sprague-Dawley rat at 1 mg/kg, iv or po measured after 0.033 to 24 hrs by LC/MS/MS analysis; conditions: in vivo
CYP2D6 = CYP2D6 (Homo sapiens, UniProt P10635); assay: Time dependent inhibition of CYP2D6 in human liver microsomes using dextromethorphan as substrate incubated for 10 mins by LC-MS/MS analysis
Chain of CYP2D6 (P10635 whole entry): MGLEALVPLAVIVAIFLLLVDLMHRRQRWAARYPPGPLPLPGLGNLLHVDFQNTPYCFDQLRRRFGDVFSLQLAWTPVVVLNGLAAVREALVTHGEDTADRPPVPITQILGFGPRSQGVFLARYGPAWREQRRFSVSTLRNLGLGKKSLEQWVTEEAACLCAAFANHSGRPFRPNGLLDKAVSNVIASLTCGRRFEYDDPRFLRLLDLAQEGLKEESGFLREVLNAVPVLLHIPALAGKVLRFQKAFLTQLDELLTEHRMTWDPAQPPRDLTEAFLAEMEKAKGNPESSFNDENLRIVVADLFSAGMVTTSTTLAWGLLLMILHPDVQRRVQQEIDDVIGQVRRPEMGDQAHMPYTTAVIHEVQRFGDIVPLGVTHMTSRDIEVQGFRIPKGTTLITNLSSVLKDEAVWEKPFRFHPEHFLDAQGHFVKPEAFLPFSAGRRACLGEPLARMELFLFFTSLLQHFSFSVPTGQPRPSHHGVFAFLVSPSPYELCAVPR

in vivo [17] = conditions: beagle, dog, po, 1 mg/kg
in vitro [18] = conditions: rat, hepatocytes
Cytochrome P450 2D6 = Cytochrome P450 2D6 (Homo sapiens, UniProt P10635); assay: Reversible inhibition of CYP2D6 in human liver microsomes using dextromethorphan as substrate preincubated for 10 mins followed by NADPH addition by LC/MS/MS analysis
Chain of Cytochrome P450 2D6 (P10635 whole entry): as above

CYP2C19 = CYP2C19 (Homo sapiens, UniProt P33261); assay: Time dependent inhibition of CYP2C19 in human liver microsomes using (s)-mephenytoin as substrate incubated for 40 mins by LC-MS/MS analysis
Chain of CYP2C19 (P33261 whole entry): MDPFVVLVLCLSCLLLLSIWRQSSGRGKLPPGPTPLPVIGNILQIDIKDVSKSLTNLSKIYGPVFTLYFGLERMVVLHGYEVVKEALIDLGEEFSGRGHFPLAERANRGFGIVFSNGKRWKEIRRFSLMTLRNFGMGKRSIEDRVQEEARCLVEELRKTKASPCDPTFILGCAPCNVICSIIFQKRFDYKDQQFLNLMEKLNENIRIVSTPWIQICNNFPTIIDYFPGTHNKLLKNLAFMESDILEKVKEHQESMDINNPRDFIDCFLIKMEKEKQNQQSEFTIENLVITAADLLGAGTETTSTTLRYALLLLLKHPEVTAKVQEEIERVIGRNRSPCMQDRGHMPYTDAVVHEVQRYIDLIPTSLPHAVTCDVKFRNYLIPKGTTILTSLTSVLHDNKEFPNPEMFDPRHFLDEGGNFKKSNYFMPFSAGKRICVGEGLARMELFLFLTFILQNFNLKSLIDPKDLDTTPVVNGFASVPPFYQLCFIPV

in vitro [19] = conditions: dog, dog liver microsomes
Cytochrome P450 2C19 = Cytochrome P450 2C19 (Homo sapiens, UniProt P33261); assay: Reversible inhibition of CYP2C19 in human liver microsomes using (S)-Mephenytoin as substrate preincubated for 40 mins followed by NADPH addition by LC/MS/MS analysis
Chain of Cytochrome P450 2C19 (P33261 whole entry): as above

in vitro [20] = conditions: cynomolgus monkey, cynomolgus monkey liver microsomes
in vitro [21] = conditions: cynomolgus monkey, cynomolgus monkey hepatocytes
[22] = Volume of distribution at steady state in Beagle dog at 1 mg/kg, iv or po measured after 0.033 to 24 hrs by LC/MS/MS analysis; conditions: in vivo
CYP3A4 [23] = target: T2, CYP3A4; assay: Time dependent inhibition of CYP3A4 in human liver microsomes using midazolam as substrate incubated for 10 mins by LC-MS/MS analysis
Cytochrome P450 2C9 = Cytochrome P450 2C9 (Homo sapiens, UniProt P11712); assay: Reversible inhibition of CYP2C9 in human liver microsomes using (s)-warfarin as substrate preincubated for 30 mins followed by NADPH addition by LC/MS/MS analysis
Chain of Cytochrome P450 2C9 (P11712 whole entry): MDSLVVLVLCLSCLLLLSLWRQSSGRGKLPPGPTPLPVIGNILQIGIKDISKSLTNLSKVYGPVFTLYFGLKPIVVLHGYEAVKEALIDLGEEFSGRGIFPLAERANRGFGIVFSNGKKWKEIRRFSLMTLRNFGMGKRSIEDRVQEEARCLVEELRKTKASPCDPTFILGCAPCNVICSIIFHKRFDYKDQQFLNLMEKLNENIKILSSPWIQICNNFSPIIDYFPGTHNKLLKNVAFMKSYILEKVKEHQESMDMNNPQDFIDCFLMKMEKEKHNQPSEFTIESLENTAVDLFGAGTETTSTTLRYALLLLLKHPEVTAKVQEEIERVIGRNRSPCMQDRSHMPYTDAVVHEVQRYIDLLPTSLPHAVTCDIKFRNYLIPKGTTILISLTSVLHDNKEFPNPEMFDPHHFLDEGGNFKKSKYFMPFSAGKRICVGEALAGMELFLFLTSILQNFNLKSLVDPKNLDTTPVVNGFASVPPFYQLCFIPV

in vivo [24] = conditions: cynomolgus monkey, po, 1 mg/kg
in vivo [25] = conditions: Sprague-Dawley, rat, po, 100 mg/kg
CYP1A2 = target: T3, CYP1A2 (Homo sapiens, UniProt P05177); assay: Time dependent inhibition of CYP1A2 in human liver microsomes using phenacetin as substrate incubated for 30 mins by LC-MS/MS analysis
T3 sequence (P05177 whole entry): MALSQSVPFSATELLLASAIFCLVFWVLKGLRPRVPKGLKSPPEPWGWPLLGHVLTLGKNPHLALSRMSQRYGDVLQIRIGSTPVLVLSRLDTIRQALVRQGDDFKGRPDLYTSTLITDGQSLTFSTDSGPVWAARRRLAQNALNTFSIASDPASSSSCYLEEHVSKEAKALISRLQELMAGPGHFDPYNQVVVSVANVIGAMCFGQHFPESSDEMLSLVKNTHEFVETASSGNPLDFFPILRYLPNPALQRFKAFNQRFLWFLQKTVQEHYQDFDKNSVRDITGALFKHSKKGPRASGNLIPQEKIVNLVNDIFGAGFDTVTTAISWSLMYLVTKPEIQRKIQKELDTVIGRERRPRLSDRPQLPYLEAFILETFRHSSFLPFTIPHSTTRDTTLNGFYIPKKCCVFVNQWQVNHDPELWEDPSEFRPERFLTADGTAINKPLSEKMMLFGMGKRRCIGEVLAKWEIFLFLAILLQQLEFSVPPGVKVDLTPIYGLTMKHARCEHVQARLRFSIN

[26] = Volume of distribution at steady state in cynomolgus monkey at 1 mg/kg, iv or po measured after 0.033 to 24 hrs by LC/MS/MS analysis; conditions: in vivo
Estrogen receptor [27] = target: T1, Estrogen receptor
Description: Antagonist activity at estrogen receptor in human T47D cells incubated for 18 hrs by ultra high sensitivity luminescence reporter gene assay

[28] = Kinetic solubility of compound at pH 7.4; conditions: buffer
in vivo [29] = conditions: beagle, dog, iv, 1 mg/kg
Cav1.2 = Cav1.2 (Homo sapiens, UniProt Q13936); assay: Inhibition of human Cav1.2 expressed in CHO cells at 10 uM by QPatch HT assay; conditions: CHO cells expressing human Cav1.2
in vivo [30] = conditions: cynomolgus monkey, iv, 1 mg/kg
Nav1.5 = Nav1.5 (Homo sapiens, UniProt Q14524); assay: Inhibition of human Nav1.5 expressed in CHO cells at 10 uM by QPatch HT assay; conditions: CHO cells expressing human Nav1.5
[31] = Half life in cynomolgus monkey at 1 mg/kg, iv or po measured after 0.033 to 24 hrs by LC/MS/MS analysis; conditions: in vivo
CYP2C9 = CYP2C9 (Homo sapiens, UniProt P11712); assay: Time dependent inhibition of CYP2C9 in human liver microsomes using s-warfarin as substrate incubated for 30 mins by LC-MS/MS analysis
Chain of CYP2C9 (P11712 whole entry): as the sequence (P11712 whole entry) above

in vitro [32] = conditions: mouse, mouse liver microsomes

For `C[C@@H]1Cc2c([nH]c3ccccc23)[C@@H](c2c(F)cc(NC3CN(CCCF)C3)cc2F)N1CC(F)(F)CO` [GIREDESTRANT], which CLint scaled at 1 h (in vitro [1]) is on record?
Its CLint scaled at 1 h is 11 mL/min/kg.

What about the Papp A→B at 3 h, 10 µM [2] of the same compound?
Its Papp A→B at 3 h, 10 µM is 3 ×10⁻⁶ cm/s.

What about the DC50 (Estrogen receptor [3]) of the same compound?
Its DC50 is 0.03 nM.

And the IC50 [4]?
The IC50 was 6.1 µM.

And the CLint scaled at 1 h, 1 µM (in vitro [5])?
Its CLint scaled at 1 h, 1 µM is 19 mL/min/kg.

What about the bioavailability (in vivo [6]) of the same compound?
The bioavailability was 41%.

And the CLint scaled at 1 h (in vitro [7])?
Its CLint scaled at 1 h is 33 mL/min/kg.

And the inhibition at 10 min (CYP3A4 [8])?
The inhibition at 10 min was -4%.

And the EC50 (MCF7)?
Its EC50 is 0.4 nM.

What about the CLint scaled at 1 h, 1 µM (in vitro [9]) of the same compound?
The CLint scaled at 1 h, 1 µM was 11 mL/min/kg.

What about the clearance (in vivo [10]) of the same compound?
Its clearance is 21 mL/min/kg.

And the CLint scaled at 1 h (in vitro [11])?
Its CLint scaled at 1 h is under 7.8 mL/min/kg.

What about the logD [12] of the same compound?
Its logD is 2.9.

What about the half-life [13] of the same compound?
The half-life was 480 min.

And the bioavailability (in vivo [14])?
Its bioavailability is 29%.

What about the half-life [15] of the same compound?
Its half-life is 1440 min.

And the Vd [16]?
The Vd was 15 L/kg.

What about the inhibition at 10 min (CYP2D6) of the same compound?
The inhibition at 10 min was 8.1%.

What about the bioavailability (in vivo [17]) of the same compound?
Its bioavailability is 55%.

And the CLint scaled at 1 h (in vitro [18])?
The CLint scaled at 1 h was 23 mL/min/kg.

And the IC50 (Cytochrome P450 2D6)?
The IC50 was over 10 µM.

What about the inhibition at 40 min (CYP2C19) of the same compound?
The inhibition at 40 min was 1.2%.

What about the CLint scaled at 1 h, 1 µM (in vitro [19]) of the same compound?
Its CLint scaled at 1 h, 1 µM is 13 mL/min/kg.

And the IC50 (Cytochrome P450 2C19)?
Its IC50 is over 10 µM.

What about the CLint scaled at 1 h, 1 µM (in vitro [20]) of the same compound?
The CLint scaled at 1 h, 1 µM was 22 mL/min/kg.

And the CLint scaled at 1 h (in vitro [21])?
The CLint scaled at 1 h was 31 mL/min/kg.

What about the Vd [22] of the same compound?
The Vd was 5.1 L/kg.

What about the inhibition at 10 min (CYP3A4 [23]) of the same compound?
Its inhibition at 10 min is -0.9%.

What about the IC50 (Cytochrome P450 2C9) of the same compound?
Its IC50 is over 10 µM.

And the bioavailability (in vivo [24])?
Its bioavailability is 17%.

What about the bioavailability (in vivo [25]) of the same compound?
Its bioavailability is 65%.

What about the inhibition at 0.5 h (CYP1A2) of the same compound?
The inhibition at 0.5 h was 1%.

What about the Vd [26] of the same compound?
Its Vd is 9.4 L/kg.

And the IC50 (Estrogen receptor [27])?
The IC50 was 0.05 nM.

And the solubility kinetic [28]?
The solubility kinetic was 135 µM (≈ 70.5 µg/mL).

What about the clearance (in vivo [29]) of the same compound?
The clearance was 3 mL/min/kg.

And the inhibition at 10 µM (Cav1.2)?
Its inhibition at 10 µM is 15.7%.

What about the clearance (in vivo [30]) of the same compound?
The clearance was 19 mL/min/kg.

And the inhibition at 10 µM (Nav1.5)?
Its inhibition at 10 µM is 16.7%.

And the half-life [31]?
Its half-life is 438 min.

What about the inhibition at 0.5 h (CYP2C9) of the same compound?
Its inhibition at 0.5 h is 19%.

What about the CLint scaled at 1 h, 1 µM (in vitro [32]) of the same compound?
The CLint scaled at 1 h, 1 µM was 52 mL/min/kg.
